In US10512670B2, “Pharmaceutical composition for preventing or treating hair loss comprising chemokine (C-X-C motif) ligand 1 (CXCL1) protein or CXCL1 protein and minoxidil as active ingredient” (SCM LIFESCIENCE CO., LTD., priority 2016, dated 2019):

How the values were obtained:
C3H/HeN mouse [1] = assay: hair generation test in hair-removed mouse, application of minoxidil and CXCL1 protein to back skin; format: in vivo; conditions: applied to back skin for 14 days (FIG. 5); PBS-alone 20 mg
Method: In addition, in the case of combining and using the minoxidil and the CXCL1 protein which were commercialized as a hair generation agent, an experiment for verifying whether the hair generation effect may be better was performed. First, for an experiment for hair regeneration, long hair of a 7-week-old C3H/HeN mouse and the like was shortly cut by using a hair cutting machine and thereafter, the hair was completely removed by using a hair removal agent. After the hair-removed mouse was stabilized for one day, a recombinant protein CXCL1 was mixed with 2% minoxidil (Women's Rogaine, Johnson & Johnson Healthcare Products, USA) to be 1 μg/ml and 10 μg/ml, respectively. The mixture of the minoxidil and the CXCL1 protein was applied to the back skin of the hair-removed mouse for 14 days by […] per day. As a control, a PBS-alone applied group and a 2% minoxidil-alone treated group were set. The hair generation in the back of the mouse was tracked and observed for 14 days and newly generated hair was obtained again and the weight was measured, and the result was illustrated in FIGS. 4 and 5.

[2] = tested on: human dermal papilla cell (DPC); assay: human dermal papilla cell (DPC) proliferation test; format: cell-based; conditions: 1 ng/ml or 5 ng/ml treated to DPC, 40 hrs, compared to cells without CXCL1 protein (FIG. 1)
Method: A human dermal papilla cell (DPC) proliferation test which is a representative in vitro cell test system for measuring hair proliferation was performed. 1 ng/ml or 5 ng/ml of the CXCL1 protein in Example 1 was treated to DPC, proliferation for 40 hrs was measured, and the result was illustrated in FIG. 1.

C3H/HeN mouse [3] = assay: hair generation test in hair-removed mouse, subcutaneous injection of CXCL1 protein; format: in vivo
Method: For a test for verifying a hair generation effect, the back of a 7-week-old C3H/HeN mouse was stabilized by removing hair by using a hair removal agent. After one day, 100 ng/ml of a human chemokine (C-X-C motif) ligand 1 (CXCL1) (SEQ ID NO:1) protein was subcutaneously injected to the back once. As a control, phosphate buffered saline (PBS) including 0.1% BSA at the same volume lysed with the CXCL1 protein was subcutaneously injected. Thereafter, the hair generation of the back of the hair-removed mouse was traced and observed for 15 days. A photograph of tracing and observing the back of the mouse with hair generation was illustrated in FIG. 2.
Further, after 15 days, the hair of the back of the mouse with newly hair generation was removed by using a knife and then the result of measuring the weight of the obtained hair was illustrated in FIG. 3.

Compound	amount of newly generated hair (C3H/HeN mouse [1])	cell proliferation [2]	hair weight (C3H/HeN mouse [3]; 100 ng/ml subcutaneously injected once, newly generated hair after 15 days (FIG. 3), control 40 mg) [mg]	hair generation of the back (photograph) (C3H/HeN mouse [3]; 100 ng/ml subcutaneously injected to the back once, observed for 15 days, compared with control (FIG. 2))	new hair relative to PBS-administered group (C3H/HeN mouse [3]; CXCL1 protein-alone administration)
Nc1cc(N2CCCCC2)nc(N)[n+]1[O-] [minoxidil]	about 30 mg				
chemokine (C-X-C motif) ligand 1 (CXCL1) [CXCL1 protein]		cell proliferation was increased	80	hair generation was more excellent	about two times greater
